In US5874235A, “Screening assays for cancer chemopreventative agents” (The Johns Hopkins University, priority 1997, dated 1999):
Numbered stars: 1 amine (or outer) side, 2 acyl side, 3 side chain; on linkers, the order of the positions; unused ones are H or OH. Bridge positions count the residues as written; N and C are the ends. Square brackets hold non-standard residues; d marks the D form. Peptide text beside a SMILES is read from it. I, II: the chains in the order shown. Actinocin(9to1) = Cc1c2oc3c(C)ccc(C(=O)[*:1])c3nc-2c(C(=O)[*:2])c(N)c1=O; NMeV = CN[C@H](C(=O)O)C(C)C; Sar = CNCC(=O)O

Assays:
Format in all cases: cell-based, human
HCT116 cells [1] = settings: for inhibition of SUS-induced apoptosis: co-treatment with SUS 125 μM (CHX 10 μM; PGE2 10 μM)
Description: FIGS. 1A, 1B and 1C NSAID induce apoptosis in human colorectal cancer cells. In FIG. […] Cells were collected at the indicated times, fixed and stained with Hoechst 33258 (23). The cells were counted and those with fragmented nuclei were scored as apoptotic. In FIG. 1B, HCT116 and SW480 cells were treated with SUS or INDO for 60 hours, harvested and stained as described above. Cells treated with SUS or INDO show the hallmarks of apoptosis.
(§1) This death appeared to be apoptotic, as it was accompanied by nuclear condensation and fragmentation (FIG. 1B) and exposure of phosphatidylserine groups on the cell surface, two hallmarks of apoptosis (11, 12).

SW480 cells [2] = settings: for inhibition of SUS-induced apoptosis: co-treatment with SUS 200 μM (CHX 10 μM; PGE2 10 μM); for effect on apoptosis: 200 μM fatty acid, 48 hours
SW480 cells [3] = settings: indomethacin treatment
Description: FIGS. 1A, 1B and 1C NSAID induce apoptosis in human colorectal cancer cells. In FIG. 1A, HCT116 and SW480 cells were treated with indomethacin (INDO) (300 μM) or SUS (125 μM for HCT116 and 200 μM for SW480 cells). Cells were collected at the indicated times, fixed and stained with Hoechst 33258 (23). The cells were counted and those with fragmented nuclei were scored as apoptotic. In FIG. 1B, HCT116 and SW480 cells were treated with SUS or INDO for 60 hours, harvested and stained as described above. Cells treated with SUS or INDO show the hallmarks of apoptosis.
as §1

HCT116 cells [4] = assay: Ceramide levels, E. coli diacylglycerol (DAG) kinase assay; settings: indomethacin treatment
Description: (§2) Cells were harvested and ceramide was quantified. The first lane of each panel corresponds to a ceramide standard (ceramide type III, Sigma). […] HCT116 and SW480 cells were treated with SUS or INDO as indicated. Ceramide levels were determined as described above. […] Control cells were treated with DMSO vehicle only. Cells were harvested at the indicated times following treatment and ceramide levels were determined as described above. The data are plotted as the mean of at least two experiments with the error bars corresponding to the standard deviation.
(§3) Ceramide levels were measured using the Escherichia coli diacylglycerol (DAG) kinase assay as previously described (30) with the following modifications. After the initial lipid extraction, phases were broken by adding 2 ml chloroform and 2 ml 1M NaCl and lipids were washed with 1M NaCl prior to drying under nitrogen (32, 33). After solubilization, samples were sonicated for 15 seconds. The DAG reaction was performed for 30 minutes at 25° C. in a 100 μl reaction volume with 3.5 μg DAG kinase (Calbiochem) and […] γ^32 P-ATP (Dupont NEN, 6000 Ci/mmol). After extraction of the labeled lipids, the lower chloroform phase was washed with 1% HCl prior to drying under nitrogen. The solvent mixture for thin layer chromatography was chloroform:acetone:methanol:acetic acid:water (10:4:3:2:1). Samples were quantitated using a Phosphorimager (Molecular Dynamics).

SW480 cells [5] = assay: as above; settings: for effect on ceramide levels: 48 hours
Description: as §2, §3

HCT116 cells [6] = assay: Arachidonic acid levels, release of 3H-AA into the media
Description: (§4) FIGS. 4A, 4B, 4C, 4D, 4E and 4F. The role of arachidonic acid in NSAID-mediated apoptosis. […] HCT116 and SW480 cells were treated with the indicated concentrations of SUS or INDO. Arachidonic acid (AA) levels were determined by measuring release of ^3 H-AA into the media as previously described (18). Data are indicated as the mean of three replicates with the error bars corresponding to the standard deviation. In addition, the nature of the released radiolabeled material was evaluated by thin layer chromatography as previously described (28). […] HCT116 and SW480 cells were incubated with ^3 H-choline chloride (0.5 mCi ml^-1, 80 Ci mmol^-1, New England Nuclear) for 48 hours. After labeling, cells were washed with HBSS (Gibco) and treated with SUS or INDO for the indicated times. Sphingomyelin measurements were performed using the bacterial sphingomyelinase method as previously described (18). Sphingomyelin levels at each time point are plotted as a percentage of that in untreated control cells. For each point, the mean of at least two independent experiments is presented with the error bars corresponding to the standard deviations. […] SW480 cells were treated with 200 μM arachidonic acid (AA), SUS (SUS) or behenic acid as a control fatty acid (FA) as indicated. […] SW480 cells were treated with suboptimal doses (100 μM) of arachidonic acid (AA), SUS (SUS), or both (AA+SUS) as indicated. After 48 hours of treatment, apoptosis and ceramide increases were assessed as described for FIGS. 1 and 3, respectively. Ceramide increases (left axis) were expressed as fold increases relative to untreated cells. Apoptosis (right axis) was expressed as percent apoptotic cells minus percent apoptotic cells in untreated cells (5.6%+/-2.4). Data are indicated as the mean of duplicates with the error bars corresponding to the standard deviation.
(§5) Arachidonic acid is known to stimulate neutral sphingomyelinase (18), which catalyzes the conversion of sphingomyelin to ceramide. We therefore considered the possibility that inhibition of COX activity might lead to increases in arachidonic acid, the substrate for COX. To test this hypothesis, we first determined whether SUS stimulated arachidonic acid accumulation. In both SW480 and HCT 116 cells, apoptosis-inducing doses of SUS increased arachidonic acid by 2 to 3 fold at 24 hours and by approximately 5 fold at 48 hours (FIGS. 4A and 4B). The arachidonic acid increase following SUS treatment was as great as that following treatment with mellitin, a known activator of phospholipase A2. Arachidonic acid levels in HCT116 cells increased 3.5 fold one hour after treatment with 1 μM mellitin. Likewise, arachidonic acid levels increased 2.9 fold in SW480 cells one hour after mellitin treatment. Arachidonic acid (AA) levels were determined by measuring release of ^3 H-AA into the media as previously described (18). The nature of released radiolabeled material was evaluated by thin layer chromatography analysis as previously described (28).

SW480 cells [7] = assay: cells; settings: for increase in arachidonic acid: sw480 cells
Description: as §4, §5

HCT116 cells [8] = assay: Sphingomyelin levels, bacterial sphingomyelinase method; settings: indomethacin treatment
Description: as §4
(§6) To test whether the increased ceramide was associated with evidence of augmented sphingomyelinase activity, we measured total sphingomyelin levels after SUS treatment. […] We also measured neutral sphingomyelinase activity in lysates from the treated cells and no differences were found. Neutral sphingomyelinase activity was assayed as described (18). After cell lysis, protein concentrations were determined using the Bradford method (Bio-Rad) and […] cellular protein was used in each assay. Neutral sphingomyelinase activity was determined by measuring the rate of hydrolysis of ^14 C-labelled sphingomyelin (Amersham). SW480 and HCT116 cell lines were treated with SUS (50, 200, and 600 μM) for 6 to 24 hours.

SW480 cells [9] = assay: as above; settings: indomethacin treatment
Description: as §4, §6

## CCCCC[C@H](O)/C=C/[C@H]1[C@H](O)CC(=O)[C@@H]1C/C=C\CCCC(=O)O [prostaglandin E2]
HCT116 cells [1]
  inhibition of SUS-induced apoptosis: No inhibition of apoptosis was observed
SW480 cells [2]
  inhibition of SUS-induced apoptosis: No inhibition of apoptosis was observed

## COc1ccc2c(c1)c(CC(=O)O)c(C)n2C(=O)c1ccc(Cl)cc1 [indomethacin]
HCT116 cells [1]; indomethacin treatment
  induction of apoptosis compared with SUS: to similar degrees as SUS
SW480 cells [3]
  induction of apoptosis compared with SUS: to similar degrees as SUS
SW480 cells [3]; cycloheximide sensitive
  cells induced to undergo apoptosis: 94%
HCT116 cells [4]
  increase of ceramide concentration compared with SUS: to similar degrees as SUS
SW480 cells [5]; indomethacin treatment
  increase in ceramide levels: 6 fold
  increase of ceramide concentration compared with SUS: to similar degrees as SUS
HCT116 cells [6]; indomethacin treatment
  increase of arachidonic acid concentration compared with SUS: to similar degrees as SUS
SW480 cells [7]; indomethacin treatment
  increase of arachidonic acid concentration compared with SUS: to similar degrees as SUS
SW480 cells [7]
  increase in arachidonic acid: 3-4 fold
HCT116 cells [8]
  activation of sphingomyelin hydrolysis compared with SUS: to similar degrees as SUS
SW480 cells [9]
  activation of sphingomyelin hydrolysis compared with SUS: to similar degrees as SUS

## mellitin
HCT116 cells [6]; one hour after 1 μM mellitin
  increase in arachidonic acid levels: 3.5 fold
SW480 cells [7]; one hour after mellitin treatment, 60 min
  increase in arachidonic acid levels: 2.9 fold

## CCCCCCCCCCCCCCCCCCCCCC(=O)O [behenic acid]
SW480 cells [5]; 200 μM fatty acid
  effect on ceramide levels: virtually no effect on ceramide levels and apoptosis
SW480 cells [2]
  effect on apoptosis: virtually no effect on ceramide levels and apoptosis

## Cc1c2oc3c(C)ccc(C(=O)N[C@@H]4C(=O)N[C@H](C(C)C)C(=O)N5CCC[C@H]5C(=O)N(C)CC(=O)N(C)[C@@H](C(C)C)C(=O)O[C@@H]4C)c3nc-2c(C(=O)N[C@@H]2C(=O)N[C@H](C(C)C)C(=O)N3CCC[C@H]3C(=O)N(C)CC(=O)N(C)[C@@H](C(C)C)C(=O)O[C@@H]2C)c(N)c1=O [actinomycin D] (I: T[dV]P[Sar][NMeV] / II: T[dV]P[Sar][NMeV]; ester I:1-I:C, II:1-II:C; linker I:N-II:N via Actinocin(9to1))
HCT116 cells [1]
  inhibition of SUS-induced apoptosis: completely inhibit apoptosis
SW480 cells [2]
  inhibition of SUS-induced apoptosis: completely inhibit apoptosis

## ceramide
HCT116 cells [1]; human, hct116 cells, 16 h, 100 µM
  induction of apoptosis: > 90%
HCT116 cells [6]; hct116 cells, 16 h, 100 µM
  increase in arachidonic acid: 1.5 fold
SW480 cells [7]; 16 h, 100 µM
  increase in arachidonic acid: 1.9 fold
SW480 cells [2]; human, sw480 cells, 16 h, 100 µM
  induction of apoptosis: > 90%

## C[C@@H]1C[C@@H]([C@H](O)CC2CC(=O)NC(=O)C2)C(=O)[C@@H](C)C1 [cycloheximide]
HCT116 cells [1]
  inhibition of SUS-induced apoptosis: completely inhibit apoptosis
SW480 cells [2]
  inhibition of SUS-induced apoptosis: completely inhibit apoptosis
SW480 cells [2]; higher concentrations of SUS
  inhibition of SW480 cell death: could not inhibit

## CCCCC/C=C\C/C=C\C/C=C\C/C=C\CCCC(=O)O [arachidonic acid]
SW480 cells [5]; 200 μM fatty acid
  effect on ceramide levels: a potent inducer of ceramide and apoptosis
SW480 cells [5]; suboptimal doses, 100 μM each, separately or together
  effect on ceramide levels: little effect on ceramide levels
SW480 cells [2]
  effect on apoptosis: a potent inducer of ceramide and apoptosis
